From the NIST ThermoML archive (doi:10.1016/j.tca.2012.07.004)

Experiment: xn = mol fraction of the nth substance listed
Details: 101 kPa, Liquid; for mass density: Vibrating tube method; for viscosity: Vibrating wire viscometry; for speed of sound: ultrasonic interferometer

C[NH+](C)C.O=P([O-])(O)O [trimethylammonium dihydrogen phosphate] + CN1CCCC1=O
Details	mass density [kg/m3]	speed of sound [m/s]	viscosity [mPa·s]
298.15 K, x1 = 0.0201	1041.43	1573	2.89
298.15 K, x1 = 0.0391	1053.47	1586	6.08
298.15 K, x1 = 0.1028	1089.8	1610	13.47
298.15 K, x1 = 0.1462	1113.92	1626	18.44
298.15 K, x1 = 0.211	1148.18	1653	25.04
298.15 K, x1 = 0.3267	1196.88	1680	30.52
298.15 K, x1 = 0.3746	1213.72	1686	31.03
298.15 K, x1 = 0.4469	1236.58	1695	31.16
298.15 K, x1 = 0.5751	1270.11	1695	27.7
298.15 K, x1 = 0.7093	1297.11	1691	21.12
298.15 K, x1 = 0.852	1325.36	1673	12.99
298.15 K, x1 = 0.9413	1342.23	1665	8.68
298.15 K, x1 = 0.9719	1348.52	1665	7.48
298.15 K, x1 = 1	1353.61	1672	7.64
303.15 K, x1 = 0.0201	1034.74	1570	2.13
303.15 K, x1 = 0.0391	1045.35	1582	3.98
303.15 K, x1 = 0.1028	1081.42	1604	11.55
303.15 K, x1 = 0.1462	1104.62	1624	15.87
303.15 K, x1 = 0.211	1136.57	1644	21.79
303.15 K, x1 = 0.3267	1183.7	1671	26.64
303.15 K, x1 = 0.3746	1200.24	1679	27.3
303.15 K, x1 = 0.4469	1223.4	1692	26.98
303.15 K, x1 = 0.5751	1257.32	1692	24.1
303.15 K, x1 = 0.7093	1286.38	1690	18.07
303.15 K, x1 = 0.852	1317.91	1675	10.86
303.15 K, x1 = 0.9413	1337.6	1663	7.93
303.15 K, x1 = 0.9719	1344.48	1662	6.79
303.15 K, x1 = 1	1350.62	1660	6.46
308.15 K, x1 = 0.0201	1028.37	1550	1.54
308.15 K, x1 = 0.0391	1038.12	1564	2.3
308.15 K, x1 = 0.1028	1073.87	1587	8.69
308.15 K, x1 = 0.1462	1095.84	1606	11.98
308.15 K, x1 = 0.211	1126.55	1633	16.24
308.15 K, x1 = 0.3267	1173.1	1663	20.11
308.15 K, x1 = 0.3746	1189.72	1673	20.71
308.15 K, x1 = 0.4469	1213.08	1688	20.64
308.15 K, x1 = 0.5751	1248.1	1693	18.68
308.15 K, x1 = 0.7093	1279.47	1691	14.21
308.15 K, x1 = 0.852	1311.88	1685	8.83
308.15 K, x1 = 0.9413	1332.36	1675	7.25
308.15 K, x1 = 0.9719	1339.9	1673	6.6
308.15 K, x1 = 1	1347.59	1661	5.61
313.15 K, x1 = 0.0201	1023.28	1544	1.47
313.15 K, x1 = 0.0391	1031.97	1560	2.82
313.15 K, x1 = 0.1028	1065.17	1588	6.92
313.15 K, x1 = 0.1462	1086.37	1608	9.58
313.15 K, x1 = 0.211	1116.83	1637	12.74
313.15 K, x1 = 0.3267	1161.79	1672	16.43
313.15 K, x1 = 0.3746	1178.19	1684	16.55
313.15 K, x1 = 0.4469	1201.94	1702	16.53
313.15 K, x1 = 0.5751	1237.68	1708	15.2
313.15 K, x1 = 0.7093	1270.77	1704	11.9
313.15 K, x1 = 0.852	1305.61	1697	7.17
313.15 K, x1 = 0.9413	1327.25	1684	6.73
313.15 K, x1 = 0.9719	1335.1	1682	5.76
313.15 K, x1 = 1	1344.53	1664	5.07

C[NH+](C)C.O=S(=O)([O-])O [trimethylammonium hydrogen sulfate] + CN1CCCC1=O
Details	mass density [kg/m3]	speed of sound [m/s]	viscosity [mPa·s]
298.15 K, x1 = 0.0183	1041.67	1572	2.72
298.15 K, x1 = 0.0369	1053.11	1573	3.99
298.15 K, x1 = 0.0964	1086.47	1576	6.59
298.15 K, x1 = 0.138	1103.99	1578	8.37
298.15 K, x1 = 0.2014	1128.96	1580	10.5
298.15 K, x1 = 0.3115	1160.07	1584	12.1
298.15 K, x1 = 0.3587	1170.49	1586	12.2
298.15 K, x1 = 0.4311	1187.05	1588	11.9
298.15 K, x1 = 0.5579	1214.39	1590	10.3
298.15 K, x1 = 0.6955	1257.13	1591	8.34
298.15 K, x1 = 0.775	1295.34	1584	7.25
298.15 K, x1 = 0.843	1334.58	1581	6.05
298.15 K, x1 = 0.9375	1403.82	1573	5.39
298.15 K, x1 = 0.97	1439.41	1566	5.24
298.15 K, x1 = 1	1467.58	1564	5.1
303.15 K, x1 = 0.0183	1037.3	1552	2.02
303.15 K, x1 = 0.0369	1048.09	1553	2.9
303.15 K, x1 = 0.0964	1080.22	1556	5.22
303.15 K, x1 = 0.138	1098.35	1558	6.83
303.15 K, x1 = 0.2014	1122.72	1562	8.56
303.15 K, x1 = 0.3115	1154.59	1568	9.88
303.15 K, x1 = 0.3587	1161.24	1571	9.93
303.15 K, x1 = 0.4311	1177.45	1573	9.66
303.15 K, x1 = 0.5579	1204.95	1577	8.28
303.15 K, x1 = 0.6955	1247.15	1575	6.8
303.15 K, x1 = 0.775	1283.75	1572	6.01
303.15 K, x1 = 0.843	1321.99	1571	5.07
303.15 K, x1 = 0.9375	1389.78	1567	4.66
303.15 K, x1 = 0.97	1426.11	1563	4.59
303.15 K, x1 = 1	1463.56	1560	4.48
308.15 K, x1 = 0.0183	1029.88	1529	1.91
308.15 K, x1 = 0.0369	1041.19	1530	2.48
308.15 K, x1 = 0.0964	1073.31	1534	4.55
308.15 K, x1 = 0.138	1091.47	1536	5.68
308.15 K, x1 = 0.2014	1115.24	1539	7.18
308.15 K, x1 = 0.3115	1146.54	1545	8.38
308.15 K, x1 = 0.3587	1155.39	1549	8.48
308.15 K, x1 = 0.4311	1170.29	1553	8.26
308.15 K, x1 = 0.5579	1196.63	1560	7.19
308.15 K, x1 = 0.6955	1239.34	1561	5.89
308.15 K, x1 = 0.775	1273.99	1560	5.25
308.15 K, x1 = 0.843	1315.25	1559	4.4
308.15 K, x1 = 0.9375	1383.15	1558	4.28
308.15 K, x1 = 0.97	1417.02	1557	4.01
308.15 K, x1 = 1	1463.5	1556	3.94
313.15 K, x1 = 0.0183	1024.27	1521	1.45
313.15 K, x1 = 0.0369	1035.08	1523	1.76
313.15 K, x1 = 0.0964	1066.52	1526	3.52
313.15 K, x1 = 0.138	1083.97	1528	4.79
313.15 K, x1 = 0.2014	1107.81	1530	6.19
313.15 K, x1 = 0.3115	1135.87	1539	7.09
313.15 K, x1 = 0.3587	1145.43	1541	7.14
313.15 K, x1 = 0.4311	1157.43	1545	6.99
313.15 K, x1 = 0.5579	1185.37	1550	6.15
313.15 K, x1 = 0.6955	1225.55	1551	4.7
313.15 K, x1 = 0.775	1260.83	1550	3.99
313.15 K, x1 = 0.843	1295.67	1553	3.52
313.15 K, x1 = 0.9375	1369.46	1552	3.35
313.15 K, x1 = 0.97	1404.25	1552	3.23
313.15 K, x1 = 1	1455.63	1552	3.16
